Source: ChEMBL document CHEMBL4414661, “Trikoramide A, a Prenylated Cyanobactin from the Marine Cyanobacterium Symploca hydnoides” (J Nat Prod, 2019)
The source made the active and inactive calls. No cut-off for these calls is given here. Numbered stars: 1 amine (or outer) side, 2 acyl side, 3 side chain; on linkers, the order of the positions; unused ones are H or OH. Square brackets hold non-standard residues; d marks the D form. Peptide text beside a SMILES is read from it. X1 = CC(C)=CC[C@@]12C[C@@H](C(=O)[*:2])N([*:1])[C@@H]1Nc1ccccc12

Experiments:
Staphylococcus aureus = assay: Antibacterial activity against methicillin-resistant Staphylococcus aureus assessed as bacterial growth inhibition at 100 uM measured after 16 hrs by microplate reader assay; type: functional, organism-based
[1] = Inhibition of quorum sensing system in Pseudomonas aeruginosa PAO1 transfected with lasB-GFP at 10 uM by measuring reduction in fluorescence intensity up to 16 hrs by fluorescence assay relative to control
Klebsiella pneumoniae = assay: Antibacterial activity against Klebsiella pneumoniae assessed as bacterial growth inhibition at 100 uM measured after 16 hrs by microplate reader assay; type: functional, organism-based
Escherichia coli = assay: Antibacterial activity against Escherichia coli assessed as bacterial growth inhibition at 100 uM measured after 16 hrs by microplate reader assay; type: functional, organism-based
OCI-AML2 = assay: Cytotoxicity against human OCI-AML2 cells measured after 24 hrs by MTT assay; type: functional, cell-based; settings: OCI-AML2, 24 h
MOLT-4 = assay: Cytotoxicity against human MOLT4 cells measured after 24 hrs by MTT assay; type: functional, cell-based; settings: MOLT-4, 24 h
MCF7 = assay: Cytotoxicity against human MCF7 cells measured after 24 hrs by MTT assay; type: functional, cell-based; settings: MCF7, 24 h

Compound: CC(C)=CC[C@@]12C[C@H]3C(=O)N[C@@H](CC(C)C)C(=O)N[C@@H](Cc4ccccc4)C(=O)N4CCC[C@H]4C(=O)N[C@@H](CC(C)C)C(=O)N4CCC[C@H]4C(=O)N[C@@H](CC(C)C)C(=O)N4CCC[C@H]4C(=O)N[C@@H](C(C)C)C(=O)N4CCC[C@H]4C(=O)N3[C@@H]1Nc1ccccc12 (cyclo(FPLPLPVP[X1]L))
- Activity (Staphylococcus aureus): inactive
- inhibition [1]: 26%
- Activity (Klebsiella pneumoniae): inactive
- Activity (Escherichia coli): inactive
- IC50 (OCI-AML2): 8.2 µM
- IC50 (MOLT-4): 5.75 µM
- IC50 (MCF7): 19 µM
